Experimental findings from patent publication US6534516B1, “Androgen receptor modulator compounds and methods” (Ligand Pharmaceuticals Incorporated, priority 1996, dated 2003) are described below.

Assay [1] deals with T1, human AR (Homo sapiens, UniProt P10275).
T1 construct: expressed in transfected cells; host or cells: CV-1 cells (African green monkey kidney fibroblasts)
T1 sequence (P10275 1-920): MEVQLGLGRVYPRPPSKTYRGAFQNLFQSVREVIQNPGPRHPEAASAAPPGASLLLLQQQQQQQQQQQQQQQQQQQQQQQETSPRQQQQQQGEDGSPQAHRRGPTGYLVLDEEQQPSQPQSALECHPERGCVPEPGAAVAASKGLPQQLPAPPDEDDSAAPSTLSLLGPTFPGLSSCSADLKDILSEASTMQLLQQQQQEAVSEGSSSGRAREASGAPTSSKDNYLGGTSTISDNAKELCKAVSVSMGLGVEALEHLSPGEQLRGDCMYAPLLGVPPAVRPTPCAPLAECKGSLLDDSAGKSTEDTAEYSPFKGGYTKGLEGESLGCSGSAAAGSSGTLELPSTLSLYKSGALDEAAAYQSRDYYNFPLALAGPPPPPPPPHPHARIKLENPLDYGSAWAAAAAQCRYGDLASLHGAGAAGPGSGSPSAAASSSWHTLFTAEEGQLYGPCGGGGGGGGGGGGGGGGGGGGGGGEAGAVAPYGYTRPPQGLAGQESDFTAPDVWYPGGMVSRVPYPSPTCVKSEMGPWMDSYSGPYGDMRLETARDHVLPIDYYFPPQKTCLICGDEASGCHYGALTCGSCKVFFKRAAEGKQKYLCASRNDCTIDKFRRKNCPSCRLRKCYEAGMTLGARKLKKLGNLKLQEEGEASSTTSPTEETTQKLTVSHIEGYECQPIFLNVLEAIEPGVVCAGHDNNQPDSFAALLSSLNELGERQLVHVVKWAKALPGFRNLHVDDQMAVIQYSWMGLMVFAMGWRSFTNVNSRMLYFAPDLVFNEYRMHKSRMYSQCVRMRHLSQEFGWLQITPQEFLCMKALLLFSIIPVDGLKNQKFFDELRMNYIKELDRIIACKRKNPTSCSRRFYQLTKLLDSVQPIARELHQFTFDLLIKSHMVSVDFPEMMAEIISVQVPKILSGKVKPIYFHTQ
The assay can be described thus: cell-based. It counts as cell-based.

Assay [2] concerns the target T1, human AR. The assay can be described thus: cell-based. Particulars: read-out: AR Binding Ki.

As usually defined, the EC50 is the midpoint of the concentration-response curve. A low value points to greater potency. The term Ki denotes a measure of affinity in units of concentration, obtained from inhibition or displacement.

In the case of `CC1(C)CCc2cc3c(C(F)(F)F)c(F)c(=O)[nH]c3cc2N1` [Compound 105, 7-Fluoro-1,2,3,4-tetrahydro-2,2-dimethyl-6-trifluoromethyl-8-pyridono[5,6-g]quinoline], in assay [1], the “AR Agonist CV-1 Cells Efficacy” value came out at 39 ± 6% and the EC50 was determined as 125 ± 28 nM. Also, the “AR Antagonist CV-1 Cells Efficacy” value in assay [1] (antagonist mode, DHT at its EC50, % of maximal inhibition, na = not active) stood at 39 ± 6%. Further, the IC50 in assay [1] (read-out: AR Antagonist CV-1 Cells Potency) was 34 ± 14 nM. Further, the “AR activity profile (in words)” value in assay [1] (summary of Tables 1 and 2) was “mixed AR agonists/antagonists”. Besides, the Ki in assay [2] is 21 ± 11 nM.
